The values below come from patent US6323193A, “Bioavailable oral dosage form of cefuroxime axetil” (Ranbaxy Laboratories Limited, priority 1999, dated 2001).

Each structure is given as a SMILES string. Where two headings read alike, the source gives them in different places.

Series [1] deals with gram-positive and gram-negative microorganisms. The conditions noted are these: cited from earlier work.
The conditions of series [2]: oral administration, cited from earlier work.
Series [3] is described as follows: Behaviour of amorphous cefuroxime axetil in contact with water (conversion to crystalline form, gel formation). The series is classed as physicochemical. Conditions: formulation with sodium salt of citric acid.
The conditions of series [4]: cited from earlier work.

`CO/N=C(\C(=O)N[C@@H]1C(=O)N2C(C(=O)OC(C)OC(C)=O)=C(COC(N)=O)CS[C@H]12)c1ccco1` (stereo partly shown) [Cefuroxime axetil, 1-acetoxyethyl ester of cefuroxime]: the spectrum of activity entry in series [1] was “broad spectrum of activity”.
On to `CO/N=C(\C(=O)N[C@@H]1C(=O)N2C(C(=O)OC(C)OC(C)=O)=C(COC(N)=O)CS[C@H]12)c1ccco1` (stereo partly shown) [Crystalline cefuroxime axetil], for which the bioavailability entry in series [2] is given as “does not exhibit adequate bioavailability”.
Turning to `CO/N=C(\C(=O)N[C@@H]1C(=O)N2C(C(=O)OC(C)OC(C)=O)=C(COC(N)=O)CS[C@H]12)c1ccco1` (stereo partly shown) [amorphous cefuroxime axetil], the “tendency to form a gel on addition of a sodium salt of citric acid” value in series [3] was “inhibits the tendency of amorphous cefuroxime axetil to form a gel”. Moreover, the bioavailability result in series [2] (listed as amorphous form of cefuroxime axetil) is reported as “high bioavailability”; in series [2] (listed as highly pure amorphous cefuroxime axetil) it was “higher bioavailability than crystalline cefuroxime axetil”. In series [4] (contact with water), the gel formation result is “forms a gel which prolongs the disintegration and retards the dissolution”. Further, the “conversion to the crystalline form” value in series [4] (upon contact with water) is “gets converted to the crystalline form”.
